Laboratory results from patent US12655116B2, “Substituted isophthalic acid diamides” (Bayer Aktiengesellschaft, priority 2020, dated 2026).

What was measured:
ABUTH [1] = assay: Pre-emergence herbicidal action against ABUTH; type: in vivo, Abutilon theophrasti
Method in brief: (§1)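 Greenhouse pots of sandy loam held seeds covered with soil, onto which the compound was applied before emergence. An aqueous suspension or emulsion of WP or EC was used at 600 to 800 l/ha with 0.2% wetting agent. Percent damage was judged visually at 3 weeks.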

ALOMY [2] = assay: Pre-emergence herbicidal action against ALOMY; type: in vivo, Alopecurus myosuroides; details: Alopecurus myosuroides, 504 h, pre-emergence
Method in brief: as §1

AMARE [3] = assay: Pre-emergence herbicidal action against AMARE; type: in vivo, Amaranthus retroflexus
Method in brief: as §1

AVEFA [4] = assay: Pre-emergence herbicidal action against AVEFA; type: in vivo, Avena fatua; details: Avena fatua, 504 h; 80 g/ha, pre-emergence
Method in brief: as §1

ECHCG [5] = assay: Pre-emergence herbicidal action against ECHCG; type: in vivo, Echinochloa crus-galli
Method in brief: as §1

MATIN [6] = assay: Pre-emergence herbicidal action against MATIN; type: in vivo, Matricaria inodora
Method in brief: as §1

POLCO = assay: Pre-emergence herbicidal action against POLCO; type: in vivo, Polygonum convolvulus; details: dosage 80 g/ha
Method in brief: as §1

SETVI [7] = assay: Pre-emergence herbicidal action against SETVI; type: in vivo, Setaria viridis; details: dosage 80 g/ha
Method in brief: as §1

VIOTR [8] = assay: Pre-emergence herbicidal action against VIOTR; type: in vivo, Viola tricolor
Method in brief: as §1

ABUTH [9] = assay: Post-emergence herbicidal action against ABUTH; type: in vivo, Abutilon theophrasti; details: visual assessment about 3 weeks after treatment vs untreated controls
Method in brief: (§2)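 A WP or EC formulation diluted in water with 0.2% wetting agent was sprayed at 600 to 800 l/ha onto one-leaf-stage plants grown in sandy loam. About 3 weeks later, action was rated visually in percent, 100% being dead plants.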

ALOMY [10] = assay: Post-emergence herbicidal action against ALOMY; type: in vivo, Alopecurus myosuroides; details: dosage 20 g/ha, visual assessment about 3 weeks after treatment vs untreated controls
Method in brief: as §2

AMARE [11] = assay: Post-emergence herbicidal action against AMARE; type: in vivo, Amaranthus retroflexus; details: 20 g/ha, visual assessment about 3 weeks after treatment, 100% = plants have died, 0% = like control plants
Method in brief: as §2

AVEFA [12] = assay: Post-emergence herbicidal action against AVEFA; type: in vivo, Avena fatua; details: 20 g/ha, visual assessment about 3 weeks after treatment, 100% = plants have died, 0% = like control plants
Method in brief: as §2

ECHCG [13] = assay: Post-emergence herbicidal action against ECHCG; type: in vivo, Echinochloa crus-galli; details: dosage 20 g/ha
Method in brief: as §2

MATIN [14] = assay: Post-emergence herbicidal action against MATIN; type: in vivo, Matricaria inodora
Method in brief: as §2

PHBPU = assay: Post-emergence herbicidal action against PHBPU; type: in vivo, Pharbitis purpurea
Method in brief: as §2

SETVI [15] = assay: Post-emergence herbicidal action against SETVI; type: in vivo, Setaria viridis; details: dosage 20 g/ha
Method in brief: as §2

VERPE [16] = assay: Post-emergence herbicidal action against VERPE; type: in vivo, Veronica persica; details: 20 g/ha
Method in brief: as §2

VIOTR [17] = assay: Post-emergence herbicidal action against VIOTR; type: in vivo, Viola tricolor
Method in brief: as §2

VERPE [18] = assay: Pre-emergence herbicidal action against VERPE; type: in vivo, Veronica persica; details: dosage 80 g/ha
Method in brief: as §1

[19] = 80 g/ha, scored visually after 3 weeks vs untreated controls (100% = plants have died, 0% = like control plants)
[20] = Tripleurospermum inodorum, 504 h, dosage 20 g/ha

CCn1nnnc1NC(=O)c1ccc(C(F)(F)F)c(C(=O)NC2CC2)c1SC [Example 2-83]
100%: pest or weed control at 80 g/ha (ABUTH [1]; Abutilon theophrasti, 504 h, 80 g/ha, scored visually after 3 weeks vs untreated controls (100% = plants have died, 0% = like control plants)) | pest or weed control at 20 g/ha (ABUTH [1]; Abutilon theophrasti, 504 h, dosage 20 g/ha, scored visually after 3 weeks vs untreated controls, 100% = plants have died, 0% = like control plants, read-out: Pre-emergence action against ABUTH (herbicidal activity in percent)) | pest or weed control at 20 g/ha (AMARE [3]; Amaranthus retroflexus, 504 h, 20 g/ha, scored visually after 3 weeks vs untreated controls, 100% = plants have died, 0% = like control plants) | pest or weed control at 80 g/ha (AMARE [3]; Amaranthus retroflexus, 504 h, 80 g/ha, scored visually after 3 weeks vs untreated controls, 100% = plants have died, 0% = like control plants) | pest or weed control at 20 g/ha (MATIN [6]; [20]) | pest or weed control at 80 g/ha (MATIN [6]; Tripleurospermum inodorum, 504 h, dosage 80 g/ha) | pest or weed control at 80 g/ha (SETVI [7]; Setaria viridis, 504 h) | pest or weed control at 80 g/ha (VIOTR [8]; Viola tricolor, 504 h, dosage 80 g/ha) | pest or weed control at 20 g/ha (ALOMY [10]; Alopecurus myosuroides, 504 h) | pest or weed control at 20 g/ha (AMARE [11]; Amaranthus retroflexus, 504 h) | pest or weed control at 20 g/ha (MATIN [14]; [20]) | pest or weed control at 20 g/ha (SETVI [15]; Setaria viridis, 504 h)
90%: pest or weed control at 80 g/ha (ALOMY [2]; [19]) | pest or weed control at 20 g/ha (ALOMY [2]; 20 g/ha, scored visually after 3 weeks, 100% = plants have died, 0% = like control plants) | pest or weed control at 80 g/ha (AVEFA [4]) | pest or weed control at 80 g/ha (ECHCG [5]; Echinochloa crus-galli, 504 h, 80 g/ha) | pest or weed control at 80 g/ha (POLCO; Fallopia convolvulus, 504 h) | pest or weed control at 5 g/ha (ABUTH [9]; Abutilon theophrasti, 504 h, dosage 5 g/ha) | pest or weed control at 20 g/ha (ABUTH [9]; Abutilon theophrasti, 504 h, dosage 20 g/ha) | pest or weed control at 20 g/ha (AVEFA [12]; Avena fatua, 504 h) | pest or weed control at 20 g/ha (ECHCG [13]; Echinochloa crus-galli, 504 h)
80%: pest or weed control at 5 g/ha (MATIN [14]; Tripleurospermum inodorum, 504 h, dosage 5 g/ha) | pest or weed control at 20 g/ha (PHBPU; Ipomoea purpurea, 504 h, dosage 20 g/ha) | pest or weed control at 20 g/ha (VERPE [16]; Veronica persica, 504 h) | pest or weed control at 5 g/ha (VIOTR [17]; Viola tricolor, 504 h, 5 g/ha) | pest or weed control at 20 g/ha (VIOTR [17]; Viola tricolor, 504 h, 20 g/ha)

CCn1nnnc1NC(=O)c1ccc(C(F)(F)F)c(C(=O)NC(C)C2CC2)c1SC (stereo not shown) [Example 2-350]
80%: Pre-emergence action against ECHCG in % (ECHCG [5]; 20 g/ha) | Post-emergence action against ABUTH in % (ABUTH [9]; dosage 20 g/ha) | Post-emergence action against ALOMY in % (ALOMY [10]) | Post-emergence action against MATIN in % (MATIN [14]; dosage 5 g/ha) | Post-emergence action against PHBPU in % (PHBPU; dosage 5 g/ha) | Post-emergence action against PHBPU in % (PHBPU; dosage 20 g/ha) | Post-emergence action against VERPE in % (VERPE [16])
100%: Pre-emergence action against ABUTH (herbicidal activity) (ABUTH [1]; [19]) | Pre-emergence action against ABUTH (herbicidal activity in percent) (ABUTH [1]; dosage 20 g/ha, scored visually after 3 weeks vs untreated controls, 100% = plants have died, 0% = like control plants) | Pre-emergence action against AMARE in % (AMARE [3]; 20 g/ha, scored visually after 3 weeks vs untreated controls, 100% = plants have died, 0% = like control plants) | Pre-emergence action against AMARE in % (AMARE [3]; [19]) | Pre-emergence action against ECHCG in % (ECHCG [5]; 80 g/ha) | Pre-emergence action against MATIN in % (MATIN [6]; dosage 20 g/ha) | Pre-emergence action against MATIN in % (MATIN [6]; dosage 80 g/ha) | Pre-emergence action against POLCO in % (POLCO) | Pre-emergence action against SETVI in % (SETVI [7]) | Pre-emergence action against VERPE in % (VERPE [18]) | Pre-emergence action against VIOTR in % (VIOTR [8]; dosage 20 g/ha) | Pre-emergence action against VIOTR in % (VIOTR [8]; dosage 80 g/ha) | Post-emergence action at 20 g/ha against AMARE in % (AMARE [11]) | Post-emergence action against ECHCG in % (ECHCG [13]) | Post-emergence action against SETVI in % (SETVI [15]) | Post-emergence action against VIOTR in % (VIOTR [17]; 5 g/ha) | Post-emergence action against VIOTR in % (VIOTR [17]; 20 g/ha)
90%: Post-emergence action at 20 g/ha against AVEFA in % (AVEFA [12]) | Post-emergence action against MATIN in % (MATIN [14]; dosage 20 g/ha)
